According to ChEMBL document CHEMBL1130507, “Synthesis and evaluation of benzophenone-based photoaffinity labeling analogs of prenyl pyrophosphates containing stable amide linkages” (Bioorg Med Chem Lett, 1997):
pIC50, pKd, pKi: −log10 of the molar value.

What follows are molecules tested against T1, Farnesyltransferase (Saccharomyces cerevisiae S288c, UniProt P22007+P29703) (assay: Inhibition of yeast Farnesyl transferase).
T1 sequence (P29703 whole entry): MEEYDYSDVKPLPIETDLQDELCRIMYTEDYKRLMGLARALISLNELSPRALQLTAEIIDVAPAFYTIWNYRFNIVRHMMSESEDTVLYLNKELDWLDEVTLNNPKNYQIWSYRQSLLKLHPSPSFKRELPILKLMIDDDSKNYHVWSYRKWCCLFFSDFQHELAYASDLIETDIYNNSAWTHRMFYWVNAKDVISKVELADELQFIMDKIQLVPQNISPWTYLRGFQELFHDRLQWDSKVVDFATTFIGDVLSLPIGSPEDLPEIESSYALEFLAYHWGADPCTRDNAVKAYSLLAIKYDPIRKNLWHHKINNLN
T1 sequence (P22007 whole entry): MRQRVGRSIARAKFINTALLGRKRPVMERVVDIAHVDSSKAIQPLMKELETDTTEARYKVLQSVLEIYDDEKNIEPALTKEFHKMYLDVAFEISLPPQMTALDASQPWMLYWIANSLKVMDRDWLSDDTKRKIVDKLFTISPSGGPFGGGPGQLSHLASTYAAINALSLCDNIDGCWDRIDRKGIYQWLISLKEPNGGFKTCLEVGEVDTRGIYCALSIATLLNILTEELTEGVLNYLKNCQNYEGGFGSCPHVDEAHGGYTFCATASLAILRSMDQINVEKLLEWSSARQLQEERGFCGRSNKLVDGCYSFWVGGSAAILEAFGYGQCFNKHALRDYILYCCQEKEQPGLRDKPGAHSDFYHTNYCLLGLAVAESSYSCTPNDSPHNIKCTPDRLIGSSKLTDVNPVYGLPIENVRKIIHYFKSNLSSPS
Type: protein-complex assay

Going from C/C(=C\COP(=O)(O)OP(=O)(O)O)CNC(=O)c1cccc(C(=O)c2ccccc2)c1 to C/C(=C\COP(=O)(O)OP(=O)(O)O)CC/C=C(\C)CNC(=O)c1cccc(C(=O)c2ccccc2)c1, the pIC50 rises from 4.43 to 5.43 (1.00 log units). The second is the more potent here.

C/C(=C\COP(=O)(O)OP(=O)(O)O)CC/C=C(\C)COC(=O)c1cccc(C(=O)c2ccccc2)c1 and C/C(=C\COP(=O)(O)OP(=O)(O)O)COC(=O)c1cccc(C(=O)c2ccccc2)c1 are within 0.2 log units of each other in pIC50: 5.64 for the first, 5.70 for the second.

In the case of C/C(=C\COP(=O)(O)OP(=O)(O)O)CC/C=C(\C)CN1C(=O)c2ccccc2C1=O, the pIC50 was 5.00.

First: C/C(=C\COP(=O)(O)OP(=O)(O)O)CNC(=O)c1cccc(C(=O)c2ccccc2)c1
Second: C/C(=C\COP(=O)(O)OP(=O)(O)O)CC/C=C(\C)CNC(=O)c1cccc(C(=O)c2ccccc2)c1
The pKi of the first is 0.93 log units lower: 5.22 for the first, 6.15 for the second.

First: C/C(=C\COP(=O)(O)OP(=O)(O)O)CC/C=C(\C)COC(=O)c1cccc(C(=O)c2ccccc2)c1
Second: C/C(=C\COP(=O)(O)OP(=O)(O)O)COC(=O)c1cccc(C(=O)c2ccccc2)c1
The pKi of the first is 0.40 log units higher: 6.42 for the first, 6.02 for the second.

CC(C)=CCC/C(C)=C/CC/C(C)=C/CO[P@@](=O)(O)OP(=O)(O)O [FARNESYL DIPHOSPHATE] gave a pKd of 7.12.
